Experimental findings from ChEMBL document CHEMBL4680137, “Synthesis and biological evaluation of some novel 1,2,3-triazole hybrids of myrrhanone B isolated from Commiphora mukul gum resin: Identification of potent antiproliferative leads active against prostate cancer cells (PC-3)” (Eur J Med Chem, 2020) are described below.

A word on the IC50: it is the concentration needed to halve the response being measured.

Bounds are passed on as bounds.

Test [1] concerns A549. As to the kind of experiment: Antiproliferative activity against human A549 cells assessed as reduction in cell viability after 48 hrs by MTT assay. Format: functional, cell-based. To be noted: A549, 48 h. (Formazan colour is commonly taken as a measure of viable cells.)
Test [2] has as its system DU-145. As to the kind of experiment: Antiproliferative activity against human DU-145 cells assessed as reduction in cell viability after 48 hrs by MTT assay. Conditions: DU-145, 48 h. Format: functional, cell-based.
Test [3] deals with PC-3. As to the kind of experiment: Antiproliferative activity against human PC3 cells assessed as reduction in cell viability after 48 hrs by MTT assay. Format: functional, cell-based. Conditions: PC-3, 48 h.
Test [4] concerns MDA-MB-231. As to the kind of experiment: Antiproliferative activity against human MDA-MB-231 cells assessed as reduction in cell viability after 48 hrs by MTT assay. Format: functional, cell-based. Conditions: MDA-MB-231, 48 h.
In test [5] the test system is L132. As to the kind of experiment: Cytotoxicity against human L132 cells assessed as reduction in cell viability after 48 hrs by MTT assay. Format: cell-based. Conditions: L132, 48 h.
In test [6] the test system is HT-29. In words: Antiproliferative activity against human HT-29 cells assessed as reduction in cell viability after 48 hrs by MTT assay. Conditions: HT-29, 48 h. Format: functional, cell-based.
In test [7] the test system is SiHa. In words: Antiproliferative activity against human SiHa cells assessed as reduction in cell viability after 48 hrs by MTT assay. Format: functional, cell-based.
Test [8] concerns U-87 MG. As to the kind of experiment: Antiproliferative activity against human U87 cells assessed as reduction in cell viability after 48 hrs by MTT assay. In kind it is functional, cell-based, U-87MG ATCC.
The subject of test [9] is Saccharomyces cerevisiae. In words: Potency index, ratio of acarbose IC50 to test compound IC50 for inhibition of Saccharomyces cerevisiae alpha-glucosidase.
For test [10], the system named is Saccharomyces cerevisiae. As to the kind of experiment: Potency index, ratio of Myrrhanone-B IC50 to test compound IC50 for inhibition of Saccharomyces cerevisiae alpha-glucosidase.
The nature of test [11]: Inhibition of LPS-induced TNF-alpha expression in human U-937 cells preincubated for 1 hr followed by LPS addition and measured after 24 hrs by ELISA. Format: functional, cell-based. On the technique in general: In an ELISA, binding on a coated surface is turned into a signal by an enzyme label.
Test [12] is described as follows: Inhibition of LPS-induced IL-1beta expression in human U-937 cells preincubated for 1 hr followed by LPS addition and measured after 24 hrs by ELISA. Format: functional, cell-based.

For `COc1cccc2c1C(=O)c1c(O)c3c(c(O)c1C2=O)C[C@@](O)(C(=O)CO)C[C@@H]3O[C@H]1C[C@H](N)[C@H](O)[C@H](C)O1` [DOXORUBICIN], the concentration for half-maximal inhibition (IC50) came to 2.58 µM in test [1]; 3.11 µM in [2]; 5.05 µM in [3]; 0.034 µM in test [4]; 0.01 µM in [5]; 0.082 µM in test [6]. Besides, the IC50 in test [7] was 0.311 µM; in [8], 5.94 µM.
Turning to `C/C(=C\CC/C(C)=C/CC[C@@H]1[C@@]2(C)CCC(=O)C(C)(C)[C@H]2CC[C@@]1(C)O)CC/C=C(\C)C(=O)OCc1cn(-c2ccccc2[N+](=O)[O-])nn1`, the IC50 in test [1] is > 150 µM; in [2] it was > 150 µM; in test [11], 9.05 µM; in test [5], > 150 µM; in [12], 8.97 µM. Further, the results for the Ratio IC50 in test [9] and in test [10] were 767 and 60.2, respectively.
`C/C(=C\CC/C(C)=C/CC[C@@H]1[C@@]2(C)CCC(=O)C(C)(C)[C@H]2CC[C@@]1(C)O)CC/C=C(\C)C(=O)OCc1cn(-c2ccc([N+](=O)[O-])cc2)nn1`: the IC50 in [1], in test [2] and in test [5] was > 150 µM each time. Further, the Ratio IC50 in test [9] is 767; in test [10] it was 60.2.
With `C/C(=C\CC/C(C)=C/CC[C@@H]1[C@@]2(C)CCC(=O)C(C)(C)[C@H]2CC[C@@]1(C)O)CC/C=C(\C)C(=O)OCc1cn([C@@H]2C[C@@H](n3cc(C)c(=O)[nH]c3=O)O[C@H]2CO)nn1`, the IC50 in [1] amounted to 35 µM; in [2], 13.8 µM; in test [3], 18.9 µM; in [4], 38 µM; in test [11], 8.34 µM; in test [5], 115 µM. Moreover, the IC50 in test [6] is 55.6 µM; in test [7], 41.7 µM; in [8], > 150 µM; in [12] it was 9.12 µM.
